Source: US20220168310A1, “INHIBITION OF ADENOVIRUS WITH FILOCICLOVIR” (Microbiotix, Inc., priority 2019, published 2022)
Read-outs that look alike come from different tables or passages of the source.

Key:
Adenovirus 5 (AdV5) = assay: Cytopathic effects (CPE) reduction assay, AdV5 in HFF cells, 384-well; assay type: cell-based, human adenovirus; details: for SI: CC50/EC50, AdV5
[1] = Cytotoxicity, CellTiter-Glo cell viability assay in HFF cells; details: human
Procedure: (§1) Human foreskin tissue was obtained from the University of Alabama at Birmingham tissue procurement facility with approval from the Institutional Review Board. The tissue was stored at 4° C. in cell culture medium consisting of minimum essential media (MEM) with Earle's salts supplemented with 10% fetal bovine serum (FBS; HyClone, Inc., Logan, Utah) and standard concentration of L-glutamine, amphotericin B (Fungizone), and vancomycin. The tissue was then placed in a phosphate-buffered saline solution, minced, and rinsed to remove the red blood cells. Tissue fragments were then resuspended in a trypsin-EDTA solution and incubated at 37° C. to disperse the cells, which were then collected by centrifugation. Cell pellets were then resuspended in 4 ml culture medium, placed in a 25-cm^2 tissue culture flask, and incubated at 37° C. for 24 h. The culture medium was then replaced with fresh medium and condition of the cells was monitored daily until a confluent cell monolayer was formed. The HFF cells were then expanded through serial passages in standard growth medium of MEM with Earle's salts supplemented with 10% FBS, L-glutamine, penicillin, and gentamicin. Each lot of cells was confirmed to be free of mycoplasma infection and routinely passaged or used for assays at or before passage 10.
(§2) Antiviral and cytotoxicity data were obtained in a series of three to five separate experiments for each virus to provide an accurate estimate of antiviral activity and statistical data. Each assay included positive and negative control compounds as well as infected and uninfected controls to ensure the integrity of the experiment.
(§3) The CPE reduction assays were performed in monolayers of human foreskin fibroblast (HFF) cells (5000/well) in 384-well plates in assay media consisting of MEM with Earle's salts, 2% FBS and standard concentrations of L-glutamine, penicillin and gentamycin. 5000 cells were seeded in 384-well microtiter plates and incubated at 37° C. in a humidified 5% CO2 incubator for 24 hours to allow for formation of confluent monolayers.
(§4) Cell monolayers were infected at a multiplicity of infection (MOI) of approximately 0.005 PFU/cell with virus strains including AdV5. […] Cytopathology was determined by the addition of CellTiter-Glo® reagent (Promega, Madison, Wis.). Concentrations of antiviral test compounds sufficient to reduce CPE by 50% (EC50) were interpolated from the experimental data using standard methods in Microsoft® Excel.

[2] = test system: human foreskin fibroblast (HFF) cells; assay: as above
Procedure: as §1, §2, §3, §4

Human AdV6 [3] = assay: High dose filociclovir against intravenously administered AdV6 in immunosuppressed hamsters (Example 5); details: 5 days post challenge, CDV 20 mg/kg 3 times weekly
Procedure: Four dose levels were tested: 10, 30, 60, and 100 mg/kg p.o. q.d. The highest dose was determined based on rat toxicology data.
All hamsters were immunosuppressed using cyclophosphamide (CP). CP was administered intraperitoneally at a dose of 140 mg/kg, and then twice weekly at a dose of 100 mg/kg.
Filociclovir, in powdered form, was suspended in 0.4% carboxymethyl cellulose (Sigma C5678) at 1, 3, 6, and 10 mg/ml and sonicated to visual homogeneity and aliquots stored at 4° C. Aliquots were allowed to equilibrate to room temperature before dosing. Hamsters weighing approximately 100 g were dosed with a 1 ml volume of the appropriate suspension for the 10, 30, 60, and 100 mg/kg dose levels. References to “vehicle” refers to 0.4% carboxymethyl cellulose
The hamsters were divided into 8 groups, 15 hamsters/group, (with the exception of Group 2, which had only 5 hamsters; see Table 3), immunosuppressed, and then injected i.v. with vehicle (Groups 1-2) or 2×10^10 PFU/kg of AdV6 (Groups […]). Groups 1 and 3 received drug vehicle (p.o. q.d.), Group 4 received 10 mg/kg filociclovir (p.o. q.d.), Group 5 received 30 mg/kg filociclovir (p.o. q.d.), Group 6 received 60 mg/kg filociclovir (p.o. q.d.), Groups 2 and 7 received 100 mg/kg filociclovir (p.o. q.d.), and Group 8 received cidofovir (20 mg/kg, 3 times weekly). For all groups, drug administration started 1 day before challenge, and continued according to the schedule above for the duration of the study.
The body weights and any signs of morbidity of the animals were recorded daily. At 5 days post challenge, 5 hamsters (designated at the start of the experiment) from each group (with the exception of Group 2) were sacrificed, and gross pathological observation was performed. Serum and liver samples were collected and the virus burden in liver was determined by a TCID50 assay, and the serum was analyzed for transaminase levels. The remaining 10 hamsters were sacrificed at 14 days post challenge. Hamsters that became visually moribund before Day 14 were sacrificed as needed. In addition to the hamsters observed to be moribund, all hamsters that lost more than 20% of their original body weight were also sacrificed. For the hamsters sacrificed at the conclusion of the experiment and those sacrificed as moribund, serum and liver tissues were collected and banked for possible determination of serum transaminase levels and virus burden in the liver. Liver tissue was preserved in formalin for possible histopathological examination.

Human AdV6 [4] = assay: Low dose filociclovir against intravenously administered AdV6 in immunosuppressed hamsters (Example 6)
Procedure: Three dose levels were tested: 1, 3, and 10 mg/kg p.o. q.d.
All hamsters were immunosuppressed using cyclophosphamide (CP) administered intraperitoneally at a dose of 140 mg/kg, and then twice weekly at a dose of 100 mg/kg. Filociclovir in powdered form was suspended in 0.4% carboxymethyl cellulose (Sigma C5678) at 0.1, 0.3, and 1.0 mg/ml and sonicated to visual homogeneity. Filociclovir was made up once weekly, aliquoted into daily portions, and stored at 4° C. Aliquots were allowed to equilibrate to room temperature before dosing.
Hamsters were distributed into 7 groups, 15 hamsters/group (see Table 4), immunosuppressed as described above, and injected i.v. with vehicle (Groups 1-2) or 4×10^10 PFU/kg of AdV6 (Groups 3-7). Groups 1 and 3 received drug vehicle (p.o. q.d.), Groups 2 and 6 received 10 mg/kg filociclovir (p.o. q.d.), Group 4 received 3 mg/kg filociclovir (p.o. q.d.), Group 5 received 1 mg/kg filociclovir (p.o. q.d.), and Group 7 received cidofovir (one dose of 37 mg/kg, followed by 20 mg/kg doses 3 times weekly). For all groups, drug administration started 1 day before challenge, and continued according to the schedule above for the duration of the study.
The body weights and any signs of morbidity of the animals were monitored and recorded daily. At 5 days post challenge, 5 hamsters (designated at the start of the experiment) from each group were sacrificed, and gross pathological observation was performed. Serum and liver were collected and virus burden in liver was determined by TCID50 assay and the serum was analyzed for transaminase levels. The remaining 10 hamsters were sacrificed at 14 days post challenge. Hamsters that became moribund before Day 14 were sacrificed as needed. In addition to the animals judged moribund by observation, we sacrificed all hamsters that lost more than 20% of their original body weight. For all animals, liver tissue was preserved in formalin for histopathological examination.

AdV5 = details: background, Kinchington et al 2005 cited; read-out: IC50 against AdV5; cited from earlier work
[5] = Human mastadenovirus C, AdV5, HFF cells, 384 well CPE, average and SD from five independent experiments, read-out: EC50
[6] = human foreskin fibroblast (HFF) cell monolayers, CC50, HFF cells, run with AdV5 assay, average and SD from five independent experiments
[7] = AdV5, HFF cells, 384 well CPE, average and SD from five independent experiments, read-out: EC50
[8] = HFF cells, run with AdV5 assay, average and SD from five independent experiments

Row | Structure (SMILES) | SI (Adenovirus 5 (AdV5)) | EC50 (Adenovirus 5 (AdV5); [5]) | CC50 [1, 6] | EC50 (Adenovirus 5 (AdV5); [7]) | other results
1 | Nc1nc2c(ncn2COCCO)c(=O)[nH]1 [ACV, acyclovir] | 1.0 | > 100 µM | > 100 µM |  | 
2 | OC[C@H]1O[C@@H](n2c(Br)nc3cc(Cl)c(Cl)cc32)[C@H](O)[C@@H]1O [BDCRB, bromodichlororibobenzimidazole] | 1.3 |  |  | 70 ± 39 µM | CC50 [2, 8]: 91 ± 13 µM
3 | Nc1ccn(C[C@@H](CO)OCP(=O)(O)O)c(=O)n1 [CDV, cidofovir, reference compound] |  |  | 97 ± 4 µM |  | animals with elevated serum transaminase levels (ALT) (Human AdV6 [3]; filociclovir p.o. q.d. groups): none; virus burden in the liver (Human AdV6 [3]; TCID50): very low to nonquantifiable levels; EC50 (Adenovirus 5 (AdV5); Human mastadenovirus C, HFF): 4 ± 2 µM; AdV6-induced liver damage, serum transaminase (ALT) (Human AdV6 [4]; CDV, 5 days post challenge): completely prevented AdV6-induced liver pathology; AdV6 replication in the liver (Human AdV6 [4]; CDV, 5 days post challenge, TCID50): completely prevented AdV6 replication in the liver; body weight loss (Human AdV6 [4]; cidofovir 37 mg/kg once, then 20 mg/kg 3 times weekly): completely reversed body weight loss
4 | CCCCCCCCCCCCCCCCOCCCOP(=O)(O)CO[C@H](CO)Cn1ccc(N)nc1=O [CMX001, brincidofovir] | 27.7 | < 0.03 µM | 0.83 ± 0.7 µM |  | 
5 | O=c1[nH]c(=O)n([C@@H]2O[C@H](CO)[C@@H](O)[C@@H]2F)cc1I [FIAU] | 1.0 |  |  | > 100 µM | CC50 [2]: > 100 µM
6 | Nc1nc(O)c2ncn(COC(CO)CO)c2n1 [GCV, ganciclovir] |  |  | > 100 µM |  | EC50 (Adenovirus 5 (AdV5); Human mastadenovirus C, HFF): 66 ± 15.1 µM; IC50 (Adenovirus 5 (AdV5); Human mastadenovirus C, HFF, read-out: IC50 value against AdV5): 66 µM; IC50 (AdV5): 66 ± 15.1 µM
7 | O=c1[nH]c(=O)n([C@H]2C[C@H](O)[C@@H](CO)O2)cc1I [IDU, idoxuridine] | 1.0 | > 100 µM | > 100 µM |  | 
8 | O=c1[nH]c(=O)n([C@@H]2CO[C@H](CO)O2)cc1/C=C/Br [L-BHDU, L-Bromovinyl-Hydroxymethyl-Dioxolan Uracil] | 1.0 |  |  | > 100 µM | CC50 [2]: > 100 µM
9 | Cc1cn([C@H]2C[C@H](O)[C@]3(CO)C[C@H]23)c(=O)[nH]c1=O [N-MCT, N-methanocarbathymidine] | 1.3 |  |  | 57 ± 47 µM | CC50 [2, 8]: 72 ± 33 µM
10 | Nc1nc2c(ncn2CCC(CO)CO)c(=O)[nH]1 [PCV, penciclovir] | 1.0 | > 100 µM | > 100 µM |  | 
11 | O=C(O)P(=O)(O)O [PFA, foscarnet] | 1.0 | > 1000 µM | > 1000 µM |  | 
12 | Nc1ncnc2c1ncn2CCOCP(=O)(O)O [PMEA, adefovir] | 2.1 | 48 ± 8 µM |  |  | CC50 [1]: > 100 µM
